Laboratory results reported in patent US8524750B2, “(Pyrazol-3-yl)-1,3,4-thiadiazol-2-amine and (pyrazol-3-yl)-1,3,4-thiazol-2-amine compounds” (Glaxo Group Limited, priority 2009, dated 2013).
≈ marks a conversion by molar mass, not a printed value. Where two headings read alike, the source gives them in different places.

Legend:
[1] = biological target: T1, Mycobacterium tuberculosis InhA (Mycobacterium tuberculosis, UniProt P9WGR1); assay: Mycobacterium tuberculosis InhA Inhibition Assay (Enzyme Assay); format: biochemical; conditions: 5 nM InhA, 50 μM DDCoA, 50 μM NADH, PIPES buffer pH 6.8, initial velocities of NADH consumption
T1 construct: made in house; host or cells: E. coli
T1 sequence (P9WGR1 whole entry, looked up): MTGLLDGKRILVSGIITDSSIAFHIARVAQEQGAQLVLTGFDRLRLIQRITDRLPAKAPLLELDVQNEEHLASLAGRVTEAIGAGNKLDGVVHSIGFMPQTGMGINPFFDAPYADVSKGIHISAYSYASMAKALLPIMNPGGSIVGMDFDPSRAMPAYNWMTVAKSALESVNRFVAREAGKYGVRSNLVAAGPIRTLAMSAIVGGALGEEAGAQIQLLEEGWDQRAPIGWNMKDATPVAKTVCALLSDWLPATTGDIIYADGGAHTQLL
Method: Mycobacterium tuberculosis InhA Inhibition Assay (Enzyme Assay)
InhA is able to reduce 2-trans enoyl-CoA esters with concomitant oxidation of NADH to NAD^+. The assay format is based on the kinetic detection of NADH consumption.
Assay for InhA inhibition is carried out with mycobacterium recombinant protein expressed and purified form E. coli. Standard assay conditions for the determination of kinetic constants and inhibitors activity use 5 nM of InhA, 50 μM of Dodecenoyl-CoA synthesized and purified as described by Quernard et al (DDCoA) and 50 μM of NADH as substrates, and it is carried out in 30 mM PIPES buffer pH 6.8, containing 0.05% of BSA. […] Triclosan is used as positive control in every experiment. One μl of compounds is added to the wells containing 25 μl of the DDCoA+NADH mix, the reaction is started by adding 50 μl of the enzyme solution. Fluorescence from NADH is followed at room temperature during 20 minutes in a fluorescent plate reader (excitation at 340 nm; emission at 480 nm). IC50 values are determined using initial velocities of NADH consumption.
Quernard A, Sacchettini J C, Dessen A, et al. Enzymatic characterization of the target for isoniazid in Mycobacterium tuberculosis. Biochemistry 1995; 34:8235-41.

[2] = test system: Mycobacterium tuberculosis H37Rv; assay: Mycobacterium tuberculosis H37Rv Inhibition Assay (Whole Cell Assay); format: cell-based; conditions: ATCC 25618 / H37Rv, H37Rv strain (ATCC25618), Middlebrook 7H9, six days at 37° C., resazurin fluorescence after 48 hours

Compound	IC50 ([1]; IC50 value)	MIC [2]	IC50 ([1]; read-out: IC50 value)
Cc1ccn(C(C)c2nnc(Nc3ccn(Cc4ccc(F)cc4Cl)n3)s2)n1 (centres unmarked) [Example 18, N-{1-[(2-chloro-4-fluorophenyl)methyl]-1H-pyrazol-3-yl}-5-[1-(3-methyl-1H-pyrazol-1-yl)ethyl]-1,3,4-thiadiazol-2-amine]	120 to 239 nM	> 10 µM	–
Cc1cc(C)n(C(C)c2nnc(Nc3ccn(Cc4c(F)cccc4Cl)n3)s2)n1 (racemic) [Example 28, N-{1-[(2-chloro-6-fluorophenyl)methyl]-1H-pyrazol-3-yl}-5-[1-(3,5-dimethyl-1H-pyrazol-1-yl)ethyl]-1,3,4-thiadiazol-2-amine]	–	≤ 1 µM	< 116 nM
Cc1ccn(C(C)c2nnc(Nc3ccn(Cc4cccc(F)c4F)n3)s2)n1 (centres unmarked) [Example 15, N-{1-[(2,3-difluorophenyl)methyl]-1H-pyrazol-3-yl}-5-[1-(3-methyl-1H-pyrazol-1-yl)ethyl]-1,3,4-thiadiazol-2-amine]	–	1 to 4 µM (≈ 0.401 to 1.61 µg/mL)	< 125 nM
Cc1csc([C@@](C)(O)c2nnc(Nc3ccn(Cc4c(F)cccc4F)n3)s2)n1 (single isomer, unassigned) [Example 90]	115 to 230 nM	> 10 µM	–
Cc1cc(C)n(C(C)c2nnc(Nc3ccn(Cc4cc(C(F)(F)F)ccc4Cl)n3)s2)n1 (centres unmarked) [Example 11, N-(1-{[2-chloro-5-(trifluoromethyl)phenyl]methyl}-1H-pyrazol-3-yl)-5-[1-(3,5-dimethyl-1H-pyrazol-1-yl)ethyl]-1,3,4-thiadiazol-2-amine]	–	> 10 µM	< 104 nM
Cc1cc(C)n(Cc2nnc(Nc3ccn(Cc4ccccc4)n3)s2)n1 [Example 64, 5-[(3,5-dimethyl-1H-pyrazol-1-yl)methyl]-N-[1-(phenylmethyl)-1H-pyrazol-3-yl]-1,3,4-thiadiazol-2-amine]	–	> 10 µM	274 to 1370 nM
Cc1csc(C(C)c2nnc(Nc3ccn(Cc4cccc(F)c4F)n3)s2)n1 (centres unmarked) [Example 16, N-{1-[(2,3-difluorophenyl)methyl]-1H-pyrazol-3-yl}-5-[1-(4-methyl-1,3-thiazol-2-yl)ethyl]-1,3,4-thiadiazol-2-amine]	–	1 to 4 µM (≈ 0.418 to 1.67 µg/mL)	< 119 nM
CC(c1nc(C(F)(F)F)cs1)c1nnc(Nc2ccn(Cc3c(F)cccc3Cl)n2)s1 (centres unmarked) [Example 31, N-{1-[(2-chloro-6-fluorophenyl)methyl]-1H-pyrazol-3-yl}-5-{1-[4-(trifluoromethyl)-1,3-thiazol-2-yl]ethyl}-1,3,4-thiadiazol-2-amine]	–	> 10 µM	< 102 nM
Cc1cc(C)n(C(C)c2nnc(Nc3ccn(Cc4cc(F)ccc4Cl)n3)s2)n1 (centres unmarked) [Example 36, N-{1-[(2-chloro-5-fluorophenyl)methyl]-1H-pyrazol-3-yl}-5-[1-(3,5-dimethyl-1H-pyrazol-1-yl)ethyl]-1,3,4-thiadiazol-2-amine]	–	4 to 10 µM (≈ 1.73 to 4.32 µg/mL)	< 116 nM
Cc1cc(C)n(C(C)c2nnc(Nc3ccn(Cc4cc(F)ccc4C(F)(F)F)n3)s2)n1 (centres unmarked) [Example 9, 5-[1-(3,5-dimethyl-1H-pyrazol-1-yl)ethyl]-N-(1-{[5-fluoro-2-(trifluoromethyl)phenyl]methyl}-1H-pyrazol-3-yl)-1,3,4-thiadiazol-2-amine]	–	> 10 µM	< 107 nM
Cc1cc(C)n(C(C)c2nnc(Nc3ccn(Cc4ccccc4)n3)s2)n1 (centres unmarked) [Example 21, 5-[1-(3,5-dimethyl-1H-pyrazol-1-yl)ethyl]-N-[1-(phenylmethyl)-1H-pyrazol-3-yl]-1,3,4-thiadiazol-2-amine]	–	4 to 10 µM (≈ 1.52 to 3.79 µg/mL)	< 132 nM
Cc1ccn(Cc2nnc(Nc3ccn(Cc4c(F)cccc4Cl)n3)s2)n1 [Example 39, N-{1-[(2-chloro-6-fluorophenyl)methyl]-1H-pyrazol-3-yl}-5-[(3-methyl-1H-pyrazol-1-yl)methyl]-1,3,4-thiadiazol-2-amine]	–	1 to 4 µM (≈ 0.404 to 1.62 µg/mL)	< 124 nM
Cc1cc(C)n(C(C)c2nnc(Nc3ccn(Cc4ccccc4C)n3)s2)n1 (centres unmarked) [Example 20, 5-[1-(3,5-dimethyl-1H-pyrazol-1-yl)ethyl]-N-{1-[(2-methylphenyl)methyl]-1H-pyrazol-3-yl}-1,3,4-thiadiazol-2-amine]	–	1 to 4 µM (≈ 0.394 to 1.57 µg/mL)	< 127 nM
CC(=O)Nc1ccc(F)c(Cn2ccc(Nc3nnc(C(C)n4nc(C)cc4C)s3)n2)c1F (centres unmarked) [Intermediate 122, N-(3-{[3-({5-[1-(3,5-dimethyl-1H-pyrazol-1-yl)ethyl]-1,3,4-thiadiazol-2-yl}amino)-1H-pyrazol-1-yl]methyl}-2,4-difluorophenyl)acetamide]	106 to 212 nM	> 10 µM	–
Cc1csc(Cc2nnc(Nc3ccn(Cc4c(F)cccc4Cl)n3)s2)n1 [Example 32, N-{1-[(2-chloro-6-fluorophenyl)methyl]-1H-pyrazol-3-yl}-5-[(4-methyl-1,3-thiazol-2-yl)methyl]-1,3,4-thiadiazol-2-amine]	–	4 to 10 µM (≈ 1.68 to 4.21 µg/mL)	< 119 nM
Cc1cc(C)n(C(C)c2nnc(Nc3ccn(Cc4ccc(C(F)(F)F)cc4)n3)s2)n1 (centres unmarked) [Example 35, 5-[1-(3,5-dimethyl-1H-pyrazol-1-yl)ethyl]-N-(1-{[4-(trifluoromethyl)phenyl]methyl}-1H-pyrazol-3-yl)-1,3,4-thiadiazol-2-amine]	223 to 1120 nM	> 10 µM	–
Cc1cc(C)n(C(C)c2nnc(Nc3ccn(Cc4ccc(Cl)cc4)n3)s2)n1 (centres unmarked) [Example 34, N-{1-[(4-chlorophenyl)methyl]-1H-pyrazol-3-yl}-5-[1-(3,5-dimethyl-1H-pyrazol-1-yl)ethyl]-1,3,4-thiadiazol-2-amine]	121 to 242 nM	4 to 10 µM (≈ 1.66 to 4.14 µg/mL)	–
Cc1csc(C(C)(O)c2nnc(Nc3ccn(Cc4cccc(Cl)c4F)n3)s2)n1 (centres unmarked) [Example 79, 1-[5-({1-[(3-chloro-2-fluorophenyl)methyl]-1H-pyrazol-3-yl}amino)-1,3,4-thiadiazol-2-yl]-1-(4-methyl-1,3-thiazol-2-yl)ethanol]	< 111 nM	≤ 1 µM	–
Cc1ccn(C(C)c2nnc(Nc3ccn(Cc4c(Cl)cccc4Cl)n3)s2)n1 (centres unmarked) [Example 54, N-{1-[(2,6-dichlorophenyl)methyl]-1H-pyrazol-3-yl}-5-[1-(3-methyl-1H-pyrazol-1-yl)ethyl]-1,3,4-thiadiazol-2-amine]	–	1 to 4 µM (≈ 0.434 to 1.74 µg/mL)	< 115 nM
Cc1cc(C)n(Cc2nnc(Nc3ccn(Cc4ccccc4Cl)n3)s2)n1 [Example 56, N-{1-[(2-chlorophenyl)methyl]-1H-pyrazol-3-yl}-5-[(3,5-dimethyl-1H-pyrazol-1-yl)methyl]-1,3,4-thiadiazol-2-amine]	–	> 10 µM	< 125 nM
Cc1cc(C(F)F)nn1Cc1nnc(Nc2ccn(Cc3ccccc3Cl)n2)s1 [Example 46, N-{1-[(2-chlorophenyl)methyl]-1H-pyrazol-3-yl}-5-{[3-(difluoromethyl)-5-methyl-1H-pyrazol-1-yl]methyl}-1,3,4-thiadiazol-2-amine]	< 115 nM	> 10 µM	–
Cc1cc(C(F)F)nn1C(C)c1nnc(Nc2ccn(Cc3ccccc3)n2)s1 (centres unmarked) [Example 43, 5-{1-[3-(difluoromethyl)-5-methyl-1H-pyrazol-1-yl]ethyl}-N-[1-(phenylmethyl)-1H-pyrazol-3-yl]-1,3,4-thiadiazol-2-amine]	–	4 to 10 µM (≈ 1.66 to 4.15 µg/mL)	< 120 nM
Cc1cc(C)n(C(C)c2nnc(Nc3ccn(Cc4c(Cl)ccc(C)c4F)n3)s2)n1 (centres unmarked) [Example 22, N-{1-[(6-chloro-2-fluoro-3-methylphenyl)methyl]-1H-pyrazol-3-yl}-5-[1-(3,5-dimethyl-1H-pyrazol-1-yl)ethyl]-1,3,4-thiadiazol-2-amine]	–	1 to 4 µM (≈ 0.446 to 1.78 µg/mL)	< 112 nM
Cc1csc([C@](C)(O)c2nnc(Nc3ccn(Cc4c(F)cccc4Cl)n3)s2)n1 (single isomer, unassigned) [Example 70]	–	≤ 1 µM	< 111 nM
Cc1cc(C(F)F)nn1Cc1nnc(Nc2ccn(Cc3ccccc3)n2)s1 [Example 45, 5-{[3-(difluoromethyl)-5-methyl-1H-pyrazol-1-yl]methyl}-N-[1-(phenylmethyl)-1H-pyrazol-3-yl]-1,3,4-thiadiazol-2-amine]	125 to 249 nM	> 10 µM	–
Cc1cc(C)n(C(C)c2nnc(Nc3ccn(Cc4cccc(Cl)c4F)n3)s2)n1 (centres unmarked) [Example 7, N-{1-[(3-chloro-2-fluorophenyl)methyl]-1H-pyrazol-3-yl}-5-[1-(3,5-dimethyl-1H-pyrazol-1-yl)ethyl]-1,3,4-thiadiazol-2-amine]	–	≤ 1 µM	< 116 nM
Cc1cc(C)n([C@@H](C)c2nnc(Nc3ccn(Cc4c(F)cccc4Cl)n3)s2)n1 (single isomer, unassigned) [Example 69]	–	1 to 4 µM (≈ 0.432 to 1.73 µg/mL)	< 116 nM
Cc1cc([N+](=O)[O-])nn1Cc1nnc(Nc2ccn(Cc3ccccc3Cl)n2)s1 [Example 58, N-{1-[(2-chlorophenyl)methyl]-1H-pyrazol-3-yl}-5-[(5-methyl-3-nitro-1H-pyrazol-1-yl)methyl]-1,3,4-thiadiazol-2-amine]	–	> 10 µM	232 to 1160 nM
